# According to ChEMBL document CHEMBL3044672, “N9- and N7-(Chloromethyl Phenymethyl)Chloropurine Derivatives from , '-Dichloroxylenes: Synthesis and Anticancer Activity” (2005):
# Assays:
# Assay type in all cases: functional
# 786-0 = test: Cytotoxicity against Homo sapiens (human) 786-0 cells after 48 hr by sulforhodamine B assay; conditions: 786-0, 48 h
# SF-268 [1] = test: Cytotoxicity against Homo sapiens (human) SF268 cells assessed as cell growth at 10^-4 M after 48 hr by […] assay; conditions: SF-268, 48 h, read-out: Activity
# EKVX = test: Cytotoxicity against Homo sapiens (human) EKVX cells after 48 hr by sulforhodamine B assay
# CAKI-1 = test: Cytotoxicity against Homo sapiens (human) Caki1 cells after 48 hr by sulforhodamine B assay; conditions: CAKI-1, 48 h
# CCRF-CEM = test: Cytotoxicity against Homo sapiens (human) CCRF-CEM cells after 48 hr by sulforhodamine B assay
# UACC-62 = test: Cytotoxicity against Homo sapiens (human) UACC62 cells after 48 hr by sulforhodamine B assay; conditions: UACC-62, 48 h
# ACHN = test: Cytotoxicity against Homo sapiens (human) ACHN cells after 48 hr by sulforhodamine B assay
# SF-539 = test: Cytotoxicity against Homo sapiens (human) SF539 cells after 48 hr by sulforhodamine B assay; conditions: SF-539, 48 h
# OVCAR-8 = test: Cytotoxicity against Homo sapiens (human) OVCAR8 cells after 48 hr by sulforhodamine B assay; conditions: OVCAR-8, 48 h
# HOP-62 = test: Cytotoxicity against Homo sapiens (human) HOP62 cells after 48 hr by sulforhodamine B assay; conditions: HOP-62, 48 h
# BT-549 = test: Cytotoxicity against Homo sapiens (human) BT549 cells after 48 hr by sulforhodamine B assay; conditions: BT-549, 48 h
# SF-295 = test: Cytotoxicity against Homo sapiens (human) SF295 cells after 48 hr by sulforhodamine B assay; conditions: SF-295, 48 h
# NCI-H522 = test: Cytotoxicity against Homo sapiens (human) NCI-H522 cells after 48 hr by sulforhodamine B assay; conditions: NCI-H522, 48 h
# OVCAR-3 = test: Cytotoxicity against Homo sapiens (human) OVCAR3 cells after 48 hr by sulforhodamine B assay; conditions: OVCAR-3, 48 h
# SNB-19 = test: Cytotoxicity against Homo sapiens (human) SNB19 cells after 48 hr by sulforhodamine B assay; conditions: SNB-19, 48 h
# HCT-116 = test: Cytotoxicity against Homo sapiens (human) HCT116 cells after 48 hr by sulforhodamine B assay; conditions: HCT-116, 48 h
# RXF 393 = test: Cytotoxicity against Homo sapiens (human) RXF393 cells after 48 hr by sulforhodamine B assay; conditions: RXF 393, 48 h
# SNB-75 = test: Cytotoxicity against Homo sapiens (human) SNB75 cells after 48 hr by sulforhodamine B assay; conditions: SNB-75, 48 h
# MDA-MB-231 = test: Cytotoxicity against Homo sapiens (human) MDA-MB-231 cells after 48 hr by sulforhodamine B assay; conditions: MDA-MB-231, 48 h
# MOLT-4 = test: Cytotoxicity against Homo sapiens (human) MOLT4 cells after 48 hr by sulforhodamine B assay; conditions: MOLT-4, 48 h
# SK-MEL-2 = test: Cytotoxicity against Homo sapiens (human) SK-MEL-2 cells after 48 hr by sulforhodamine B assay; conditions: SK-MEL-2, 48 h
# COLO 205 = test: Cytotoxicity against Homo sapiens (human) COLO205 cells after 48 hr by sulforhodamine B assay; conditions: COLO 205, 48 h
# SW-620 = test: Cytotoxicity against Homo sapiens (human) SW620 cells after 48 hr by sulforhodamine B assay; conditions: SW-620, 48 h
# NCI-H322M = test: Cytotoxicity against Homo sapiens (human) NCI-H322M cells after 48 hr by sulforhodamine B assay
# SF-268 [2] = test: Cytotoxicity against Homo sapiens (human) SF268 cells after 48 hr by sulforhodamine B assay; conditions: SF-268, 48 h
# OVCAR-5 = test: Cytotoxicity against Homo sapiens (human) OVCAR5 cells after 48 hr by sulforhodamine B assay; conditions: OVCAR-5, 48 h
# [3] = read-out: LC50 (the source's name)
structure (smiles),measurement,setting,value
ClCc1cccc(Cn2cnc3nc(Cl)nc(Cl)c32)c1,GI50,786-0,1580 nM
same,LC50,786-0,5370 nM
same,TGI,786-0,2880 nM
same,growth at 100 µM,SF-268 [1],0%
same,GI50,EKVX,930 nM
same,TGI,EKVX,2130 nM
same,CC50,EKVX; [3],4570 nM
same,GI50,CAKI-1,1860 nM
same,TGI,CAKI-1,3460 nM
same,GI50,CCRF-CEM,1380 nM
same,TGI,CCRF-CEM,2750 nM
same,CC50,CCRF-CEM; [3],5490 nM
same,GI50,UACC-62,1020 nM
same,LC50 (concentration causing 50% net cell kill),UACC-62,4670 nM
same,TGI,UACC-62,2180 nM
same,GI50,ACHN,1120 nM
same,TGI,ACHN,2340 nM
same,CC50,ACHN; [3],4780 nM
same,GI50,SF-539,160 nM
same,LC50 (concentration killing 50% of cells),SF-539,1620 nM
same,TGI,SF-539,460 nM
same,GI50,OVCAR-8,9330 nM
same,LC50 (concentration killing 50% of cells),OVCAR-8,45700 nM
same,TGI,OVCAR-8,21400 nM
same,GI50,HOP-62,2180 nM
same,TGI,HOP-62,3630 nM
same,CC50,HOP-62; [3],6020 nM
same,GI50,BT-549,480 nM
same,LC50 (50% lethal concentration),BT-549,4160 nM
same,TGI,BT-549,1730 nM
same,GI50,SF-295,1860 nM
same,TGI,SF-295,3380 nM
same,CC50,SF-295; [3],6300 nM
same,GI50,NCI-H522,1810 nM
same,TGI,NCI-H522,3540 nM
same,CC50,NCI-H522; [3],6910 nM
same,GI50,OVCAR-3,1510 nM
same,LC50,OVCAR-3,5370 nM
same,TGI,OVCAR-3,2880 nM
same,GI50,SNB-19,1380 nM
same,LC50,SNB-19,5120 nM
same,TGI,SNB-19,2690 nM
same,GI50,HCT-116,750 nM
same,TGI,HCT-116,1990 nM
same,CC50,HCT-116; [3],4460 nM
same,GI50,RXF 393,1340 nM
same,TGI,RXF 393,2630 nM
same,CC50,RXF 393; [3],5120 nM
same,GI50,SNB-75,1090 nM
same,TGI,SNB-75,2290 nM
same,CC50,SNB-75; [3],4780 nM
same,GI50,MDA-MB-231,460 nM
same,LC50,MDA-MB-231,4160 nM
same,TGI,MDA-MB-231,1730 nM
same,GI50,MOLT-4,1040 nM
same,TGI,MOLT-4,2290 nM
same,CC50,MOLT-4; [3],5010 nM
same,GI50,SK-MEL-2,1770 nM
same,LC50 (concentration killing 50% of cells),SK-MEL-2,7760 nM
same,TGI,SK-MEL-2,3710 nM
same,GI50,COLO 205,410 nM
same,TGI,COLO 205,1650 nM
same,GI50,SW-620,410 nM
same,TGI,SW-620,1650 nM
same,CC50,SW-620; [3],4070 nM
same,GI50,NCI-H322M,14100 nM
same,TGI,NCI-H322M,26900 nM
same,CC50,NCI-H322M; [3],52500 nM
same,GI50,SF-268 [2],2130 nM
same,TGI,SF-268 [2],3800 nM
same,GI50,OVCAR-5,1690 nM
same,TGI,OVCAR-5,3230 nM
same,CC50,OVCAR-5; [3],6300 nM
